Results published in publication PMC6214909, “An asparagine/glycine switch governs product specificity of human N-terminal methyltransferase NTMT2” (Communications Biology, 2018).
Entries after “also recorded” stand apart in the source; their conditions may differ. Read-outs that look alike come from different tables or passages of the source. Square brackets hold non-standard residues; d marks the D form. Ends that are not written are not given here. Peptide text beside a SMILES is read from it. NMeS = CN[C@@H](CO)C(=O)O; NMeA = CN[C@@H](C)C(=O)O

B1: Sme1PKRIA peptide (methylated SPKRIA) (peptide)
peptide: [NMeS]PKRIA
notes: N-terminal hexapeptide of regulator of chromatin condensation 1 (RCC1), without the initiator methionine, alpha-N-monomethylated; also called mono-methylated SPKRIA
B2: Ame1PKRIA peptide (peptide)
peptide: [NMeA]PKRIA
notes: XPKRIA peptide derived from the RCC1 N-terminal hexapeptide SPKRIA, with alanine at the first position, alpha-N-monomethylated; also called mono-methylated APKRIA

Tests used:
[1] = biological target: T1, NTMT2 (Homo sapiens, UniProt Q5VVY1); test: Isothermal titration calorimetry, wild-type NTMT2 and peptide; type: binding
T1 construct: DNA encoding human NTMT2 (residues 58–278) was amplified by PCR; SUMO (His8-SUMO of the pET28-MKH8SUMO vector, with TEV site) (N, cleaved yes); made in house; host or cells: Escherichia coli BL21 (DE3)
T1 sequence (Q5VVY1 58-278): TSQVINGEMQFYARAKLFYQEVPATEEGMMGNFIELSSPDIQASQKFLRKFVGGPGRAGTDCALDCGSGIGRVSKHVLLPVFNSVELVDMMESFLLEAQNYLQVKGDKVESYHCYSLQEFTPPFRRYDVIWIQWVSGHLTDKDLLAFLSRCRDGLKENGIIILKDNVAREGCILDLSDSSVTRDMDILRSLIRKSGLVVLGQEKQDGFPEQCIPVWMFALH
Description: ITC measurements were performed in 20 mM Tris–HCl pH 7.5, 150 mM NaCl and 0.5 mM TCEP at 25 °C using MicroCal VP-ITC instrument. The final concentrations of protein and peptide were 50–80 μM and 0.6–1.2 mM, respectively. The peptide was titrated into the protein solution with 26 injections of 10 μL each. Injections were spaced 180 s with a reference power of 15 μcal s^−1. The ITC data were processed using Origin software.

[2] = test system: NTMT1; test: MALDI-MS methyltransferase activity assay, NTMT1; type: biochemical, human; details: 2 μM NTMT1, 10 μM peptide, 200 μM SAM, 25 mM Tris–HCl pH 7.5, 50 mM KCl, 37 °C, overnight
Description: (§1) A mixture (36 μL) of 2 μM enzyme (NTMT1 or NTMT2), 25 mM Tris–HCl pH 7.5, 50 mM KCl and 200 μM SAM was incubated at 37 °C for 5 min. 4 μL of 100 μM peptide substrate (final concentration 10 μM) was then added to initiate the reaction. The reaction was incubated overnight and then stopped with quenching solution (20 mM NH4H2PO4, 0.4% (v/v) TFA in 1:1 acetonitrile/water). Reaction mixtures were analyzed with an Applied Biosystems Voyager matrix-assisted laser desorption/ionization time-of-flight mass spectrometer. Processing of all spectra results in Data Explorer included application of a noise filter (correlation factor of 1.0) and a baseline correction. Areas of the monoisotopic peaks for all relevant species were combined to obtain a total area for each sample. The fraction of each methylation state was calculated by summing the areas of all the monoisotopic peaks for that state ([M + H]^+, [M + Na]^+, [M + K]^+, [M – H + 2Na]^+, [M – H + 2 K]^+, and [M – H + Na + K]^+) and then dividing by the total area.

[3] = biological target: T1, NTMT2; test: MALDI-MS methyltransferase activity assay, NTMT2; type: biochemical; details: 2 μM NTMT2, 10 μM peptide, 200 μM SAM, 25 mM Tris–HCl pH 7.5, 50 mM KCl, 37 °C, overnight
Description: as §1

[4] = test system: NTMT2-N89G mutant; test: MALDI-MS methyltransferase activity assay, NTMT2-N89G mutant; type: biochemical, human; details: NTMT2-N89G under the same conditions (2 μM enzyme, 10 μM peptide, 200 μM SAM, pH 7.5, 37 °C, overnight)
Description: as §1

[5] = biological target: RCC1 (Homo sapiens); details: cited from earlier work
[6] = biological target: T2, NTMT2 (residues 58–278) N89G mutant (human, UniProt Q5VVY1 58-278, N89G); test: ITC; peptide (0.6–1.2 mM) titrated into protein (50–80 μM); 20 mM Tris–HCl pH 7.5, 150 mM NaCl, 0.5 mM TCEP, 25 °C; MicroCal VP-ITC; details: both partners purified
T2 construct: N-terminal methyltransferase NTMT2 (METTL11B/NRMT2), human, residues 58-278; also called NTMT2-N89G; source: E. coli BL21 (DE3), purified with the same protocol as wild type; not shown: SUMO, N-terminal, cleaved
T2 sequence (Q5VVY1 58-278 N89G): as the sequence (Q5VVY1 58-278) above, with N32G counted along it

[7] = ITC, wild-type NTMT2, 20 mM Tris–HCl pH 7.5, 150 mM NaCl, 0.5 mM TCEP, 25 °C, ND = no detectable binding

Molecule	Kd [1, 7]	Di-methylated fraction [2]	Mono-methylated fraction [2]	Trimethylated fraction [2]	Unmethylated fraction [2]	Di-methylated fraction [3]	Mono-methylated fraction [3]	Trimethylated fraction [3]	Unmethylated fraction [3]	Di-methylated fraction [4]	Mono-methylated fraction [4]	Trimethylated fraction [4]	Unmethylated fraction [4]	Kd [5]	Kd ([1]; read-out: Kd)	Kd [6]
CC[C@H](C)[C@H](NC(=O)[C@H](CCCNC(=N)N)NC(=O)[C@H](CCCCN)NC(=O)[C@@H]1CCCN1C(=O)[C@H](C)NC)C(=O)N[C@@H](C)C(=O)O [Ame1PKRIA] (H-[NMeA]PKRIA-OH)	no detectable binding; also recorded: does not bind	–	–	–	–	–	–	–	–	–	–	–	–	–	–	–
CC[C@H](C)[C@H](NC(=O)[C@H](CCCNC(=N)N)NC(=O)[C@H](CCCCN)NC(=O)[C@@H]1CCCN1C(=O)[C@H](CO)NC)C(=O)N[C@@H](C)C(=O)O [Sme1PKRIA] (H-[NMeS]PKRIA-OH)	barely demonstrated any binding affinity; also recorded: does not bind	–	–	–	–	–	–	–	–	–	–	–	–	–	–	–
IPKRIA [synthetic XPKRIA hexapeptide substrate, X = I]	–	20.10%	43.34%	0.00%	36.56%	0.00%	0.00%	0.00%	100.00%	0.00%	5.08%	0.00%	94.92%	–	–	–
KPKRIA [synthetic XPKRIA hexapeptide substrate, X = K]	–	96.14%	0.00%	3.86%	0.00%	0.00%	5.19%	0.00%	94.81%	0.00%	20.40%	0.00%	79.60%	–	–	–
LPKRIA [synthetic XPKRIA hexapeptide substrate, X = L]	–	70.78%	26.28%	2.94%	0.00%	0.00%	3.16%	0.00%	96.84%	0.00%	18.14%	0.00%	81.86%	–	–	–
MPKRIA [synthetic XPKRIA hexapeptide substrate, X = M]	–	91.26%	0.00%	8.74%	0.00%	0.00%	41.45%	0.00%	58.55%	0.00%	100.00%	0.00%	0.00%	–	–	–
NPKRIA [synthetic XPKRIA hexapeptide substrate, X = N]	–	100.00%	0.00%	0.00%	0.00%	0.00%	0.00%	0.00%	100.00%	0.00%	21.58%	0.00%	–	–	–	–
NTMT1 (from UniProt Q9BV86)	–	–	–	–	–	–	–	–	–	–	–	–	–	800 nM	–	–
PPKRIA [synthetic XPKRIA hexapeptide substrate, X = P]	–	100.00%	0.00%	0.00%	0.00%	10.19%	38.00%	0.00%	51.81%	4.45%	65.75%	0.00%	–	–	–	–
QPKRIA [synthetic XPKRIA hexapeptide substrate, X = Q]	–	100.00%	0.00%	0.00%	0.00%	0.00%	0.00%	0.00%	100.00%	0.00%	32.39%	0.00%	67.61%	–	–	–
RPKRIA [synthetic XPKRIA hexapeptide substrate, X = R]	–	98.24%	0.00%	1.76%	0.00%	0.00%	23.35%	0.00%	76.65%	0.00%	47.86%	0.00%	52.14%	–	–	–
SPKRIA [SPKRIA]	–	–	–	–	–	0.00%	46.39%	0.00%	53.61%	–	–	–	–	–	18 µM	–
TPKRIA [synthetic XPKRIA hexapeptide substrate, X = T]	–	33.51%	40.04%	0.00%	26.44%	0.00%	0.00%	0.00%	100.00%	0.00%	11.78%	0.00%	88.22%	–	–	–
VPKRIA [synthetic XPKRIA hexapeptide substrate, X = V]	–	45.70%	54.30%	0.00%	0.00%	0.00%	0.00%	0.00%	100.00%	0.00%	4.18%	0.00%	95.82%	–	–	–
WPKRIA [synthetic XPKRIA hexapeptide substrate, X = W]	–	17.46%	67.03%	0.00%	15.51%	0.00%	36.35%	0.00%	63.65%	0.00%	100.00%	0.00%	0.00%	–	–	–
YPKRIA [synthetic XPKRIA hexapeptide substrate, X = Y]	–	100.00%	0.00%	0.00%	0.00%	0.00%	23.72%	0.00%	76.28%	0.00%	87.50%	0.00%	12.50%	–	–	–
B1	–	–	–	–	–	–	–	–	–	–	–	–	–	–	–	36 µM
B2	–	–	–	–	–	–	–	–	–	–	–	–	–	–	–	32 µM
